According to patent publication US11203753B2, “Hepcidin antagonists for use in the treatment of inflammation” (INSERM (INSTITUT NATIONAL DE LA SANTE ET DE LA RECHERCHE …, priority 2015, dated 2021):

What was measured:
NF-kB pathway = experiment: Hepcidin-induced expression of CXCL1 and TNF-α in macrophages with pathway inhibitors; type: cell-based, mouse
Excerpt: Moreover, MyD88, a canonical adaptor for inflammatory signaling pathway, but not TLR4, was required for the hepcidin-triggered induction of CXCL1 and TNF-α. Indeed, macrophages isolated from TLR4−/− but not MyD88−/− mice were still able to mount an inflammatory response after addition of hepcidin.

Cxcr2 = molecular target: T1, Cxcr2 (Mus musculus, UniProt P35343); experiment: Neutrophil migration towards hepcidin in presence of Cxcr2 inhibitor; type: cell-based; settings: hepcidin 1 μg/ml
T1 construct: Migration of WT bone marrow isolated neutrophils in response to hepcidin (1 μg/ml); endogenous in cells; host or cells: primary neutrophils isolated from bone marrow of WT mice (mixed C57BL6/129SV background)
T1 sequence (P35343 1-359): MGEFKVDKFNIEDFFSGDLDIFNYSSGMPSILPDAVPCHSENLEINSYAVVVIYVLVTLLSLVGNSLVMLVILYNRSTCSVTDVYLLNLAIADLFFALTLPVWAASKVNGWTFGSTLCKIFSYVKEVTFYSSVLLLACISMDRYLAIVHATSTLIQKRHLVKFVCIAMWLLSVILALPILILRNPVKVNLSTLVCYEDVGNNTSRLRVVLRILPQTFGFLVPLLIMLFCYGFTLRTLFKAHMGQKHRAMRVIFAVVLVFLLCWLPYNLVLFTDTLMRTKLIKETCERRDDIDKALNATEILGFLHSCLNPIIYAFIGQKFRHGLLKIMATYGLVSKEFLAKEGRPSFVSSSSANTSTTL
Experimental: Migration of WT bone marrow isolated neutrophils in response to hepcidin (1 μg/ml) in presence or not of the Cxcr2 inhibitor (sb225002, Sigma-Aldrich). n=3. mean+/−s.e.m.
(§1) Neutrophil migration was assessed using transwell (3 μm; BD-Falcon) coated with 10 μg/ml fibronectin (# F1141, Sigma-Aldrich). The cells (5×10^5/well) were diluted in 700 μL DMEM+10% SVF and migration towards hepcidin (Peptide International) in the bottom well was allowed for 2 hours at 37° C. The resulting migrated cells recovered from the bottom well were counted using hemocytometer.

hepcidin expression = experiment: Hepcidin expression (Q-PCR) in mouse intestine and liver 7 h after ip injection of TLR agonists; type: in vivo; settings: WT mice
Experimental: Mice were ip injected with LPS (from E. coli O111:B4; 2 mg/kg), Zymosan A (from Saccharomyces cerevisiae, Sigma-Aldrich Z4250; 250 mg/kg), Poly:IC (Polyinosinic-polycytidylic acid sodium salt, Sigma-Aldrich P0913; 12.5 mg/kg), Flagellin (FLA-ST from Salmonella Typhimirium, InvivoGen, #12B06-MM; 1.5 mg/kg) or with a sterile saline solution (PBS) and sacrificed 7 hours later.
(§2) RNA extraction, reverse transcription, quantitative PCR and sequences of the primers used have been previously described^8. All samples were normalized to the threshold cycle value for cyclophilin-A.

[1] = system: Raw 264.7 (ATCC TIB-71) murine macrophage cell line; experiment: CXCL2 and TNF-α expression (Q-PCR) in serum starved Raw 264.7 macrophages with Hepc-25; type: cell-based
Experimental: FIG. 9: Serum starvation enhances the proinflammatory action of Hepc-25 in macrophages. Expression by Q-PCR of CXCL2 and TNF-α in Raw 264.7 (ATCC® TIB-71™) murine macrophage cell line serum starved or not for 1 hour before the addition of 10 μg/ml of Hepc-25 (Peptide International) for an additional hour. N=3 per group; mean+/−s.e.m. Statistical analysis by a two-way analysis of variance (ANOVA) followed by a Bonferroni posttest. **p<0.01; ***p<0.001.
Expression by Q-PCR of CXCL2 in Raw 264.7 (ATCC® TIB-71™) murine macrophage cell line serum starved for 1 hour or not before the addition of 1 or 10 μg/ml of Hepc-25 (Peptide International) for an additional hour. N=3 per group; mean+/−s.e.m. Statistical analysis by a two-way analysis of variance (ANOVA) followed by a Bonferroni posttest. **p<0.01; ****p<0.0001.

macrophages [2] = experiment: CXCL1 and TNF-α protein accumulation by macrophages following hepcidin treatment; type: cell-based, mouse; settings: at 7 hours
Experimental: Kinetic response of macrophage-derived CXCL1 and TNF-α following hepcidin treatment was further determined. […] Massive protein accumulation of CXCL1 and TNF-α reached respectively 300 and 150 pg/ml at 7 hours (Data not shown). Hepcidin stimulated IL-1beta, IL-6 and iNOS expression with a maximal induction at 3 hours with 10 μg/ml hepcidin (FIG. 2c) while the peak of TNF-alpha and Cox-2 expression occurred after 1 hour of hepcidin treatment. AMPs, such as LL37, typically function in this high concentration range^18,19 to induce proinflammatory molecules^20,21. This allows the production of inflammatory mediators in pathological conditions where AMPs concentrations can reach high values^18,19 and not in healthy tissues where inflammatory damage might otherwise harm host cells.

macrophages [3] = experiment: Inflammatory gene expression (Q-PCR) in macrophages incubated with hepcidin-25; type: cell-based, mouse
Experimental: a, Flow cytometry analysis of neutrophils in lamina propria of WT and KO mice. Left: Representative experiment with Ly6G^+ Ly6C^low cells shown after gating on CD45^+CD11b^+ cells; Right: pool of four experiments (mean+/−s.e.m; *p<0.05). b, Migration of WT bone marrow isolated neutrophils in response to hepcidin-25. (3 experiments performed in triplicate; mean+/−s.e.m; *p<0.05). c, CXCL1, CXCL2, IL-1beta, iNOS mRNA levels in macrophages incubated for 1 or 3 hours with 1 μg/ml, 10 μg/ml Hepcidin-25 or PBS (control). d, Immunohistochemistry using anti-mouse iNOS antibody on intestine of WT and Hepc^Δint mice upon PBS or LPS injection.
The gastrointestinal tract contains the largest reservoir of macrophages in the organism^17. Besides its proper chemoattractant property, the inventors hypothesized that hepcidin may influence the production of chemokines by the macrophages. Macrophages were incubated with hepcidin-25 at different time points (30 min, 1 h, 3 h, 24 h, 48 h).
as §2

[4] = system: WT bone marrow isolated neutrophils; experiment: Neutrophil migration assay (transwell) towards hepcidin; type: cell-based, mouse
Experimental: Bone marrows from WT mice were flushed from femurs and tibias with PBS using a 25 G needle. Tissues were homogenized through a 18 G needle and the suspension was passed through 70 μm and 40 μm cell strainers. Cells were centrifuged at 400 g for 10 min and resuspended in cold MACS buffer (PBS, BSA 0.5%, EDTA 2 mM, pH 7.4). After counting, cells were incubated on ice with FcBlock™ for 10 min, anti-Ly6C for 15 min and anti-biotin antibody microbeads for 15 min, following the manufacturer's instructions. Cells were washed with MACS buffer and centrifuged at 400 g for 10 min. Neutrophils were immuno-magnetically separated following filtration of the cell suspension through an LS column (Miltenyi) according to manufacturer's instructions.
as §1

[5] = system: Caco-2 intestinal cell line; experiment: Addition of synthetic mature hepcidin to Caco-2 intestinal cell line; type: cell-based; settings: basolateral or apical side

For `CC(C)(C)c1ccc(S(=O)(=O)/C=C/C#N)cc1` [BAY 7085], the “hepcidin-induced expression of CXCL1 and TNF-α” value (NF-kB pathway) was “strongly blunted”.

With `O=C(Nc1ccc([N+](=O)[O-])cc1O)Nc1ccccc1Br` [sb225002] the “neutrophil migration towards hepcidin” value (Cxcr2) was “prevents neutrophil migration”.

In the case of “Polyinosinic-polycytidylic acid sodium salt [poly:IC]”, the “hepcidin expression in the intestine” value (hepcidin expression) is reported as “induced”.

With `Cc1ccc(S(=O)(=O)/C=C/C#N)cc1` [BAY 7082] the “hepcidin-induced expression of CXCL1 and TNF-α” value (NF-kB pathway) was “strongly blunted”.

With “hepcidin: synthetic mature 25 amino acid hepcidin peptide (Peptide International)” the “expression of Cxcl2” value ([1]; 1 μg/ml, serum starvation 1 hour, 1 additional hour) was “robust expression”, the “stimulatory effect on macrophage-mediated cytokine release” value ([1]; serum-free conditions versus not starved) was “clearly enhanced” and the CXCL1 protein accumulation (macrophages [2]) was 300 pg/mL. For the same molecule, the TNF-α protein accumulation (macrophages [2]) was 150 pg/mL, the “expression of the iron-responsive gene TfR1” value (macrophages [3]) was “unchanged” and the “time of peak of TNF-alpha and Cox-2 expression” value (macrophages [3]) was 1 h. For the same molecule, the “time of peak of transient CXCL1 and TNF-α mRNA induction” value (macrophages [3]) was 1 h, the “expression of CXCL-1 and CXCL2” value (macrophages [3]; 1 μg/ml hepcidin, 1 hour) was “slightly increased” and the “time of maximal induction of IL-1beta, IL-6 and iNOS expression” value (macrophages [3]; 10 μg/ml hepcidin) was 3 h. The “expression of CXCL-1 and CXCL2” value (macrophages [3]; 10 μg/ml hepcidin, 1 hour) was “maximally induced”, the “fold change of genes statistically induced (TNF-α, CXCL1, CXCL2, NF-kappa-B inhibitor zeta, Mir-146)” value (macrophages [3]; 1 hour) was over 2 and the migration of neutrophils ([4]; bimodal dose response) was “induced a dose-dependent migration of neutrophils”. For the same molecule, the “dose of peak response of neutrophil migration” value ([4]; migration 2 hours at 37° C.) was 0.1 µg/mL and the iNOS expression [5] was “did not induce”.

B1: flagellin: FLA-ST from Salmonella Typhimirium, agonist of TLR5 (protein, UniProt P06179 2-495, looked up)
Flagellin: AQVINTNSLSLLTQNNLNKSQSALGTAIERLSSGLRINSAKDDAAGQAIANRFTANIKGLTQASRNANDGISIAQTTEGALNEINNNLQRVRELAVQSANSTNSQSDLDSIQAEITQRLNEIDRVSGQTQFNGVKVLAQDNTLTIQVGANDGETIDIDLKQINSQTLGLDTLNVQQKYKVSDTAATVTGYADTTIALDNSTFKASATGLGGTDQKIDGDLKFDDTTGKYYAKVTVTGGTGKDGYYEVSVDKTNGEVTLAGGATSPLTGGLPATATEDVKNVQVANADLTEAKAALTAAGVTGTASVVKMSYTDNNGKTIDGGLAVKVGDDYYSATQNKDGSISINTTKYTADDGTSKTALNKLGGADGKTEVVSIGGKTYAASKAEGHNFKAQPDLAEAAATTTENPLQKIDAALAQVDTLRSDLGAVQNRFNSAITNLGNTVNNLTSARSRIEDSDYATEVSNMSRAQILQQAGTSVLAQANQVPQNVLSLLR
For B1, the “hepcidin expression in the intestine” value (hepcidin expression) was “induced”.
